Source: US20240261443A1, “COMPOUNDS AND COMPOSITIONS USEFUL AS RADIOTRACERS FOR IMAGING OF REACTIVE OXIDATIVE SPECIES” (Wake Forest University Health Sciences, priority 2019, published 2024)

Key:
[1] = tested on: SCC-61 and rSCC-61 cell lines; assay: MitoSOX fluorescence ROS assay, with or without SOD blocker; format: cell-based, human
Procedure: As a first-line tool to screen KS1 and KS2: SCC-61 has higher intracellular ROS than rSCC-61. MitoSOX is a mitochondrion-targeted dihydroethidium based derivative that primarily detects ROS (superoxide anion) produced within mitochondria. Mitosox assays without any ligands were used as controls. The two cell lines were treated with KS1, KS2 and ascorbate (10.0 μM) and incubated for an hour. MitoSOX (1.0 μM) in phenol red-free DMEM/F12 media was added and incubated for an additional 10 min. The cells were then washed with PBS and imaged in the same media.
In addition to testing KS1 with the MitoSOX assay, we compared our results with no ligand controls and ascorbate as a reference standard. The two cell lines were treated with KS1 and ascorbate (10.0 μM) and incubated for an hour. MitoSOX (1.0 μM) in phenol red-free DMEM/F12 media was added and incubated for an additional 10 min. The cells were then washed with PBS and imaged in the same media. Ligand specificity is commonly determined by pretreating the cells with high concentrations of blockers. Superoxide dismutase (SOD), an enzyme that selectively suppresses accumulation of ROS-superoxide peroxide anions, was added as blocker (1.0 mM) 60 min before the treatment of KS1 (Bielski et al., Chemistry of ascorbic acid radicals. in Ascorbic Acid: Chemistry, Metabolism, and Uses. Chapter. 1982; 4:81-100). Fluorescence was subsequently measured and its intensity was quantified in f.u (fluorescence units).
Ligand specificity is commonly determined by pretreating the cells with high concentrations of blockers. We used superoxide dismutase (SOD), an enzyme that selectively suppresses accumulation of ROS-superoxide peroxide anions (Bielski et al., Chemistry of ascorbic acid radicals. in Ascorbic Acid: Chemistry, Metabolism, and Uses. Chapter 1982, 4, 81-100). The same MitoSOX assay with KS1 and KS2 (10 μM) was performed by pretreating the SCC-61 cells with SOD (1.0 mM) for 60 min.

Ex vivo serum stability = format: in vitro ADME; details: human serum, 37° C., after 120 min of tracer synthesis
Procedure: The ex vivo serum stability of [^18F]KS1 and [^18F]KS2 were analyzed in human serum samples, following previously published methods (Sai et al., Peptide-based PET imaging of the tumor restricted IL13RA2 biomarker. Oncotarget 2017, 5; Sattiraju et al., IL13RA2 targeted alpha particle therapy against glioblastoma. Journal of Nuclear Medicine 2016, 57 (supplement 2), 634; Wang et al., Evaluation of F-18-labeled amino acid derivatives and [18F]FDG as PET probes in a brain tumor-bearing animal model. Nuclear Medicine and Biology 2005, 32 (4), 367-375). Briefly, radiotracer was added to the human serum sample, and incubated at 37° C. Radioactive serum mixture was injected into the QC-HPLC system at 5 min, 30 min, 1 h, 1.5 h, 2 h, 2.5 h, and 3 h post radiotracer synthesis. Radiolysis through defluorination and/or oxidation of the radiotracers (if any) can be seen as new radiochemical peaks at different retention times (Rt) than the original product peak (Jin et al., A promising F-18 labeled PET radiotracer (-)-[18F]VAT for assessing the VAChT in vivo. Journal of Nuclear Medicine 2015, 56 (supplement 3); Koglin et al., [F-18]BAY 85-8050: A novel tumor specific probe for PET imaging-Preclinical results. Journal of Nuclear Medicine 2010, 51 (supplement 2), 1535; […] et al., Imaging COX-2 expression in cancer using PET/SPECT radioligands: current status and future directions. […]

rSCC-61 tumors = assay: Post-PET biodistribution, rSCC-61 tumor-bearing mice; format: in vivo
Procedure: (§1) Subsequently, post-PET biodistribution was performed in the same SCC-61 or rSCC-61 tumor-bearing mice injected with [^18F]KS1 (FIG. 16). […] High kidney and liver uptake were common with [^18F]radiotracer's distribution at 30 min post-injection.

SCC-61 tumors = assay: Post-PET biodistribution, SCC-61 tumor-bearing mice; format: in vivo
Procedure: as §1

SMILES: O=C1O/C(=C/CCl)C(O)=C1OCc1ccc(OCCF)cc1 [KS1, (E)-5-(2-chloroethylidene)-3-(4-(2-fluoroethoxy)benzyloxy)-4-hydroxyfuran-2(5H)-one]
- MitoSOX fluorescence in SCC-61 compared to rSCC-61 cells ([1]; 10.0 μM, 1 h incubation): higher fluorescence
- higher selectivity between the two cell lines compared to ascorbate selectivity ([1]; Example 4, SCC-61 vs rSCC-61, MitoSOX fluorescence): ~10 fold
- higher differential selectivity between the high- and low-ROS cell lines compared to ascorbate ([1]; Example 5, SCC-61 vs rSCC-61, MitoSOX fluorescence): ~2.2 fold
- fluorescent intensity of KS1-mitoSOX with SOD ([1]; SCC-61 cells, 10 μM, SOD (1.0 mM) pretreatment 60 min): 1842 f.u
- fluorescent intensity of KS1-mitoSOX ([1]; SCC-61 cells, 10 μM, without SOD): 3631 f.u
- decrease of fluorescent uptake by SOD pretreatment ([1]; SCC-61 cells, SOD (1.0 mM) for 60 min): ~50%

SMILES: O=C1O/C(=C/CCl)C(O)=C1OCc1ccc(OCC[18F])cc1 [[^18F]KS1]
- intact in serum (Ex vivo serum stability): ~90%
- target (tumor) to non-target (muscle) ratio (rSCC-61 tumors): 4.11
- target (tumor) to non-target (muscle) ratio (SCC-61 tumors; SCC-61 tumors, post-PET): 10.93
- enrichment in SCC-61 tumors over rSCC-61 tumors (SCC-61 tumors; tumor: muscle ratio): ~2.5 fold
